8 compounds from patent US20230330254A1 (Regeneron Pharmaceuticals, Inc., priority 2022, published 2023) can be followed below.

Data set [1] has as its system HEK293/CRE-Luc cells. The experiment in a line: Luciferase reporter assay, HEK293/CRE-Luc cells without hGLP1R (Example 11). The class given is cell-based, human. The settings on record: Experiment A; for HEK293/CRE-LUC S/N / EC50: Table 11, no hGLP1R expression. From the text:
(§1) To test the activity of GLP1R agonist payloads, GLP1R agonist linker-payloads (LPs), and anti-GLP1R antibody tethered drug conjugates (ATDCs) of the disclosure, a cell-based cAMP responsive luciferase reporter assay was developed. To generate the assay cell line, the firefly luciferase gene was placed under the control of a cAMP response element (CRE) located upstream of a minimal promoter and transfected into HEK293 cells and referred to herein as HEK293/CRE-Luc cells.
(§2) Three-fold serial dilutions of free payloads or LPs were prepared in 100% DMSO, transferred to fresh assay media, and added to the cells at a final constant DMSO concentration of 0.2%. The last well in the plate served as a blank control containing only the assay media and 0.2% DMSO (untreated well) and was plotted as a continuation of the 3-fold serial dilution. Four to six hours later, luciferase activity was determined after the addition of One-Glo™ reagent (Promega, Cat #E6130) to each well. Relative light units (RLUs) were measured on an Envision luminometer (PerkinElmer) and EC50 values were determined using a four-parameter logistic equation over a 12-point dose response curve (GraphPad Prism). The signal to noise (S/N) was determined by taking the ratio of the highest RLU on the dose response curve to the RLU in the untreated wells.
(In a reporter assay the amount or activity of a reporter protein is the signal.)

The test system of data set [2] is HEK293/CRE-Luc cells. Put plainly: Luciferase reporter assay, HEK293/CRE-Luc cells without GLP1R (Example 17). The class given is cell-based, human. Particulars: HEK293/CRE-Luc cells without hGLP1R. In short, it runs like this: (§3)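 HEK293 cells carrying a CRE-driven firefly luciferase reporter were exposed to 3-fold serial dilutions of payloads or linker-payloads (12 points, 0.2% DMSO final) for 4–6 h, then luminescence was read. EC50 came from a four-parameter logistic fit; S/N is top RLU over untreated wells, and relative potency and S/N are referenced to M2361.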

Data set [3] can be described thus: Plasma stability of payloads and linker-payloads, human plasma. Format: in vitro ADME. Particulars: plasma, 2 μM, 37° C., read-out: Human plasma stability assay T½ (converted). As to the method:
The plasma stability of payloads and linker payloads of the disclosure were measured. For the assay, pooled frozen plasma (human, mouse or monkey) was thawed in cold water or a 37° C. water bath prior to experiment. Plasma was centrifuged at 4000 rpm for 5 min if any clots were observed, they were subsequently removed. If required, the pH was adjusted to 7.4±0.1. For the preparation of compounds and positive controls, a 1 mM intermediate solution was prepared by diluting 10 μL of their stock solution with 90 μL DMSO; a 1 mM intermediate solution of the positive control (Propantheline) was prepared by diluting 10 μL of its stock solution with 90 μL ultrapure water. […] 98 μL of plasma was spiked with 2 μL of dosing solution (100 μM) to achieve the final concentration of 2 μM in duplicate. Samples were then incubated at 37° C. in a water bath. […] At each time point, 400 μL of stop solution (200 ng/mL tolbutamide plus 200 ng/mL labetalol in 50% ACN/MeOH) was added to precipitate protein and mixed thoroughly. Sample plates were then centrifuged at 4,000 rpm for 10 min. An aliquot of supernatant (50 μL) was transferred from each well and mixed with 100 μL ultrapure water. The samples were then shaken at 800 rpm for approximately 10 min before submitting for LC-MS/MS analysis.

Data set [4] addresses T1, human GLP1R (Homo sapiens, UniProt P43220). The experiment in a line: Luciferase reporter assay, HEK293/CRE-Luc/hGLP1R cells (Example 11). Format: cell-based. The settings on record: Table 11; Experiment A. The arrangement: engineered to express full-length human GLP1R, cynomolgus GLP1R; expressed in transfected cells; host or cells: HEK293/CRE-Luc.
Description: as §1, §2
GLP1R agonist linker payloads were conjugated to anti-hGLP1R antibodies via N-terminal heavy or light chain Q tags. Several resulting anti-GLP1R antibody tethered drug conjugates (ATDCs) were tested for activity in the HEK293/CRE-Luc/hGLP1R reporter assay as described above for the free GLP1R payload and linker-payload agonists.

In data set [5] the target is T1, human GLP1R. The experiment in a line: Luciferase reporter assay, HEK293/CRE-Luc/hGLP1R (Example 17). The settings on record: HEK293/CRE-Luc/hGLP1R. Format: cell-based. The arrangement: engineered to express full-length human GLP1R, cynomolgus GLP1R; expressed in transfected cells; host or cells: HEK293/CRE-Luc. In outline: as §3
Data set [6] concerns the target T1, human GLP1R. The experiment in a line: Human GLP1R cAMP accumulation assay. Format: cell-based. Details: HEK293 cells over-expressing full length human GLP-1R were utilized; expressed in transfected cells; host or cells: HEK293 (HEK293/hGLP1R). The settings on record: HEK293/hGLP1R cells; Table 4; read-out: cAMP EC50. In short, it runs like this:
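cAMP accumulation measured after 30 min at 23° C, with 500 μM IBMX in HEPES-buffered HBSS plus 0.1% BSA, in HEK293 cells expressing full-length hGLP-1R. Levels read by D2-cAMP/antibody immunoassay via standard curve, scaled between low and high controls. EC50 fitted four-parameter over a 10-point curve.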
On the technique in general: Cyclic AMP is a second messenger, typically raised through Gs and lowered through Gi signalling.

Where [7] appears, read: relative to M2361 of the same experiment.

Where two headings read alike, the source gives them in different places. *1 amine or outer side, *2 acyl side, *3 side chain or, on linkers, in order; H or OH if unused. Where a SMILES comes first, the peptide text is derived from it. [ ]: non-standard residue; d: D form. The star is where a group is joined. Bip(2'-Et-4'-O(CH2)4NH2) = CCc1cc(OCCCCN[*:3])ccc1-c1ccc(C[C@H](N[*:1])C(=O)[*:2])cc1; Bip(2'-Et,4'-O(CH2)4NH2) = CCc1cc(OCCCCN)ccc1-c1ccc(C[C@H](N)C(=O)O)cc1; X10 = O=C(NCCOCCOCCOCCOC(=O)*)OC[C@@H]1[C@@H]2CCc3[nH]nnc3CC[C@@H]21; Malonyl(2,2-Me2,histaminyl) = CC(C)(C(=O)NCCc1cnc[nH]1)C(=O)*; Nva(5-(3,5-Me2Ph)) = Cc1cc(C)cc(CCC[C@H](N)C(=O)O)c1; Ala(1H-tetrazol-5-yl) = N[C@@H](Cc1nnn[nH]1)C(=O)O; αMePhe(2-F) = C[C@](N)(Cc1ccccc1F)C(=O)O; Desaminohistidyl = O=C(CCc1c[nH]cn1)*

T1 sequence (P43220 24-463): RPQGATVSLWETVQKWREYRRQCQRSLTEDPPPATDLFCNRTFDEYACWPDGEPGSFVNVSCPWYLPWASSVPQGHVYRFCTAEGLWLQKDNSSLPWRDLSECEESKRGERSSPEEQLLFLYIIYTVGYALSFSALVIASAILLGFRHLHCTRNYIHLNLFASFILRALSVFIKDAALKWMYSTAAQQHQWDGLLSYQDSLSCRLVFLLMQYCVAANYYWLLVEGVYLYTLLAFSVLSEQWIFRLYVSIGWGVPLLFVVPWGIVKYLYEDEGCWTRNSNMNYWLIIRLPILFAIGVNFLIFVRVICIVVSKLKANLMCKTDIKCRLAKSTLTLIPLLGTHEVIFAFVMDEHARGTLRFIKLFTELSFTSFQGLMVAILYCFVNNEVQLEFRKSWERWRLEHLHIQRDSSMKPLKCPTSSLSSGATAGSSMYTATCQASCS

As for `CC[C@H](C)[C@H](NC(=O)[C@H](Cc1ccccc1)NC(=O)[C@H](CCC(=O)O)NC(=O)[C@H](CCCCN)NC(=O)[C@H](C)NC(=O)[C@H](C)NC(=O)[C@H](CCC(N)=O)NC(=O)CNC(=O)[C@H](CCC(=O)O)NC(=O)[C@H](CC(C)C)NC(=O)[C@H](Cc1ccc(O)cc1)NC(=O)[C@H](CO)NC(=O)[C@H](CO)NC(=O)[C@@H](NC(=O)[C@H](CC(=O)O)NC(=O)[C@H](CO)NC(=O)[C@@H](NC(=O)[C@H](Cc1ccccc1)NC(=O)[C@@H](NC(=O)CNC(=O)[C@H](CCC(=O)O)NC(=O)[C@H](C)NC(=O)[C@@H](N)Cc1c[nH]cn1)[C@@H](C)O)[C@@H](C)O)C(C)C)C(=O)N[C@@H](C)C(=O)N[C@@H](Cc1c[nH]c2ccccc12)C(=O)N[C@@H](CC(C)C)C(=O)N[C@H](C(=O)N[C@@H](CCCCN)C(=O)NCC(=O)N[C@@H](CCCNC(=N)N)C(N)=O)C(C)C` [GLP1, glucagon-like peptide 1, reference compound], the “HEK293/CRE-LUC S/N” value in data set [1] is 1.3. For the same compound, in data set [1] (Table 12), the “HEK293/CRE-Luc S/N” value is on record as 1.4. Besides, the S/N in data set [2] (ATDCs and references (Table 27)) is 1.4; in data set [2] (payloads and linker-payloads), 1.3.
With `CCc1cc(OCCCCn2cc(COCCOCCOCCOCCNC(=O)OC[C@@H]3[C@@H]4CCc5[nH]nnc5CC[C@@H]43)nn2)ccc1-c1ccc(C[C@H](NC(=O)[C@H](CC(=O)O)NC(=O)[C@H](CO)NC(=O)[C@@H](NC(=O)[C@](C)(Cc2ccccc2F)NC(=O)[C@@H](NC(=O)CNC(=O)[C@H](Cc2nn[nH]n2)NC(=O)C(C)(C)C(=O)NCCc2cnc[nH]2)[C@@H](C)O)[C@@H](C)O)C(=O)N[C@@H](CCCc2cc(C)cc(C)c2)C(N)=O)cc1` [LP24, triazole-BCN-PEG4-triazole-P8], the half-life at 2 µM in data set [3] (pH 7.4, tested time D (7 days)) was above 16.9 days.
The same measure, in the same setting: in the case of `CCc1cc(OCCCCNC(=O)OCCOCCOCCOCCNC(=O)OC[C@@H]2[C@@H]3CCc4[nH]nnc4CC[C@@H]32)ccc1-c1ccc(C[C@H](NC(=O)[C@H](CC(=O)O)NC(=O)[C@H](CO)NC(=O)[C@@H](NC(=O)[C@](C)(Cc2ccccc2F)NC(=O)[C@@H](NC(=O)CNC(=O)[C@H](Cc2nn[nH]n2)NC(=O)C(C)(C)C(=O)NCCc2cnc[nH]2)[C@@H](C)O)[C@@H](C)O)C(=O)N[C@@H](CCCc2cc(C)cc(C)c2)C(N)=O)cc1` [LP25, triazole-BCN-PEG4-carba-mate-P9] ({Malonyl(2,2-Me2,histaminyl)}-[Ala(1H-tetrazol-5-yl)]GT[αMePhe(2-F)]TSD[Bip(2'-Et-4'-O(CH2)4NH2)](X10)[Nva(5-(3,5-Me2Ph))]-NH2) it was 11.9 days; in that of `CCc1cc(OCCCCNC(=O)[C@H](CO)NC(=O)CNC(=O)CNC(=O)CNC(=O)CNC(=O)CCC(=O)N2Cc3ccccc3-c3nn[nH]c3-c3ccccc32)ccc1-c1ccc(C[C@H](NC(=O)[C@H](CC(=O)O)NC(=O)[C@H](CO)NC(=O)[C@@H](NC(=O)[C@](C)(Cc2ccccc2F)NC(=O)[C@@H](NC(=O)CNC(=O)[C@H](Cc2nn[nH]n2)NC(=O)C(C)(C)C(=O)NCCc2cnc[nH]2)[C@@H](C)O)[C@@H](C)O)C(=O)N[C@@H](CCCc2cc(C)cc(C)c2)C(N)=O)cc1` [LP26, triazole- DIBAC- G4S-P9], above 16.9 days.
`CCc1cc(OCCCCn2cc(COCCOCCOCCOCCOCCOCCOCCOCCNC(=O)CCC(=O)N3Cc4ccccc4-c4nn[nH]c4-c4ccccc43)nn2)ccc1-c1ccc(C[C@H](NC(=O)[C@H](CC(=O)O)NC(=O)[C@H](CO)NC(=O)[C@@H](NC(=O)C(C)(Cc2ccccc2F)NC(=O)[C@@H](NC(=O)CNC(=O)[C@H](Cc2nn[nH]n2)NC(=O)C(C)(C)C(=O)NCCc2cnc[nH]2)[C@@H](C)O)[C@@H](C)O)C(=O)N[C@@H](CCCc2cc(C)cc(C)c2)C(N)=O)cc1` (stereo partly drawn) [LP28, triazole-DIBAC-suc-PEG8-triazole-P8]: in data set [3] (pH 7.4, tested time C (3 days)), the half-life at 2 µM is above 7.23 days.
On the same count and under the same terms, in the case of `CCc1cc(OCCCCn2cc(COCCOCCOCCOCCOCCOCCOCCOCCN)nn2)ccc1-c1ccc(C[C@H](NC(=O)[C@H](CC(=O)O)NC(=O)[C@H](CO)NC(=O)[C@@H](NC(=O)[C@](C)(Cc2ccccc2F)NC(=O)[C@@H](NC(=O)CNC(=O)[C@H](Cc2nn[nH]n2)NC(=O)C(C)(C)NC(=O)[C@@H](N)Cc2ccc(O)cc2)[C@@H](C)O)[C@@H](C)O)C(=O)N[C@@H](CCCc2cc(C)cc(C)c2)C(N)=O)cc1` [LP29, NH2-PEG8-triazole-P19] it was above 7.23 days.
The EC50 is the concentration needed to bring the measured effect to its halfway point. With `CCc1cc(OCCCCN)ccc1-c1ccc(C[C@H](NC(=O)[C@H](CC(=O)O)NC(=O)[C@H](CO)NC(=O)[C@@H](NC(=O)[C@](C)(Cc2ccccc2F)NC(=O)[C@@H](NC(=O)CNC(=O)[C@H](Cc2nn[nH]n2)NC(=O)CNC(=O)CCc2cnc[nH]2)[C@@H](C)O)[C@@H](C)O)C(=O)N[C@@H](CCCc2cc(C)cc(C)c2)C(N)=O)cc1` [P12] (Desaminohistidyl-G[Ala(1H-tetrazol-5-yl)]GT[αMePhe(2-F)]TSD[Bip(2'-Et,4'-O(CH2)4NH2)][Nva(5-(3,5-Me2Ph))]-NH2), in data set [1], the EC50 is above 200 nM and the “HEK293/CRE-LUC S/N” value is recorded as 1.2. In data set [2] (payloads and linker-payloads), this compound displayed a S/N of 1.2. In addition, the EC50 in data set [2] (payloads and linker-payloads, read-out: EC50) was above 200 nM. For the same compound, in data set [4], the “HEK293/CRE-LUC/hGLP1R Relative Potency (% P8 EC50)” value came to 46.5% and the “HEK293/CRE-LUC/hGLP1R S/N” value was 76.4. The compound also came in with a S/N in data set [5] (highest RLU / RLU of untreated wells) of 76.4. In data set [5] (setting [7]), the “Relative Potency (% M2361 EC50)” value turned out to be 46.5% and the “Relative Signal:Noise (% M2361)” value amounted to 116.2%.
In the case of `CCc1cc(OCCCCN)ccc1-c1ccc(C[C@H](NC(=O)[C@H](CC(=O)O)NC(=O)[C@H](CO)NC(=O)[C@@H](NC(=O)[C@](C)(Cc2ccccc2F)NC(=O)[C@@H](NC(=O)CNC(=O)[C@H](Cc2nn[nH]n2)NC(=O)[C@@]2(C)CCN(CCc3cnc[nH]3)C2=O)[C@@H](C)O)[C@@H](C)O)C(=O)N[C@@H](CCCc2cc(C)cc(C)c2)C(N)=O)cc1` [P15-R], in data set [1], the EC50 is above 200 nM and the “HEK293/CRE-LUC S/N” value stood at 1.1. In data set [4], the EC50 is 0.0132 nM, the “HEK293/CRE-LUC/hGLP1R Relative Potency (% P8 EC50)” value came out at 40.3% and the “HEK293/CRE-LUC/hGLP1R S/N” value amounted to 67.8. For the same compound, in data set [6], the EC50 stood at 0.117 nM.
